In patent publication US20130338199A1, “Novel Niacin Compositions for Reduction of Amyloid Beta Peptide 42 (AB42) Production and for Treatment of Alzheimer's Disease” (priority 2008, published 2013):
Like-named read-outs stand apart in the source and are kept apart here.

Experiments:
[1] = test system: Aβ42 production by human neuroblastoma SH-SY5Y cells; assay: Aβ42 production by SH-SY5Y cells, sandwich ELISA of conditioned medium; conditions: for activity in reducing the production of Aβ42 (in words): cell-based assay
Method: We used the human Neuroblastoma SH-SY5Y cells for drug testing as a model for Aβ42 production. The cells were cultured in Dulbecco's modified Eagle's medium or Dulbecco's modified Eagle's medium/Ham's F-12 medium supplemented with 10% fetal bovine serum, 100 units/ml penicillin, and 100 μg/ml streptomycin in a humidified atmosphere of 95% air, 5% CO2 at 37° C. as per suppliers instructions. […] Cell toxicity was monitored using the MTT assay and all data reported are corrected for any cell loss.
Sandwich Enzyme-Linked Immunosorbent Assay (sELISA) for Quantization of Aβ42:
The capture antibody, detection antibody and secondary antibody as well as standard purified preparations of Aβ42 were obtained from Sigma-Aldrich. Cells were cultured for 24 h in the presence or absence of compounds and the conditioned medium was subjected to sELISA.

[2] = In vivo pharmacokinetics (plasma and brain niacin and eugenol by HPLC); design: species or system male Swiss Albino mice; conditions: male, Swiss Albino, mouse
Method: In vivo pharmacokinetic (PK) studies were conducted in male Swiss Albino mice. Niacin-Eugenol physical mixture or Niacin-Eugenol hybrid cocrystal was administered to the animals at a dose of 0.73 mmol/kg orally (n=2 mice per time point). […] Plasma was separated by centrifugation at 4000 rpm for 10 minutes and stored in ice for analysis. Animals were sacrificed at the above time points; and brains were excised, snap frozen in liquid nitrogen and stored at −80° C. Samples were analyzed by high-performance liquid chromatography (HPLC) with UV detection. […] The precipitated proteins were removed by centrifugation at 15000 rpm at 5° C. for 10 min. The supernatant was collected in HPLC vials and kept at 4° C. for analysis. 200 mg of the brain tissue was homogenized in Acetonitrile. The resultant homogenate was centrifuged at 15000 rpm for 10 minutes at 4° C. […] Pharmacokinetic parameters were calculated using WinNonLin v5.2 software. The plasma and brain samples were analyzed for Niacin and Eugenol concentrations using HPLC under the conditions shown below: […]

[3] = test system: human APP overexpressing Drosophila; assay: Survival of human APP overexpressing Drosophila transgenic model; format: in vivo, Drosophila melanogaster; conditions: 100 mg/kg body weight/day with the food
Method: The effect of cocrystal of niacin-eugenol/eugenol was tested in a Drosophila model which over expresses the human APP protein. The creation of the APP over expressing flies and other methods for these studies are as described previously by Greeve et al (See J. Neuroscience, 2004, 24:3899-3906). The targeted over/ectopic expression of APP in the brain using UAS promoter driven APP transgene, induced by a specific GAL4 trans-driver in the Drosophila model system was used. Adult flies, a total of 80 flies (4 males and 4 females per tube, 10 tubes) were fed right after their emergence and the survival was examined until the end of 9th day. The drugs to be tested were delivered with the food.

[4] = Homo sapiens, SH-SY5Y, read-out: IC50 (μM) in cell based abeta assay

Q: Which IC50 [1, 4] does the source give for `COc1cc(C(C)=O)ccc1OC(=O)c1cccnc1` [Niacin-apocynin hybrid] here?
A: The IC50 was 25.3 µM.

Q: Which IC50 ([1]; read-out: IC50 (μM) in cell based abeta assay, blocking Aβ42 secretion) does the source give for `CCCc1ccc(OC(=O)c2cccnc2)c(OC)c1` [Niacin-dihydro eugenol hybrid] here?
A: The IC50 was over 50 µM.

Q: With `COc1cc(CC2CO2)ccc1OC(=O)c1cccnc1` (stereo not drawn) [Niacin-eugenol epoxide hybrid] as the compound, how does the IC50 [1, 4] read?
A: The IC50 was 17.5 µM.

Q: With `C=CCc1ccc(OC(=O)c2cccnc2)c(OC)c1` [Niacin-eugenol hybrid, Nicotinic acid 4-allyl-2-methoxy-phenyl ester] as the compound, how does the “increase in Tmax for eugenol compared to physical mixture” value [2] read?
A: The value was 4 fold.

Q: And the IC50 [1, 4]?
A: Its IC50 is 14 µM.

Q: And the “activity in reducing the production of Aβ42 (in words)” value [1]?
A: The value was “most active among the series”.

Q: What about the “activity in reducing the production of Aβ42 (in words)” value ([1]; listed as niacin-eugenol ester linked hybrid) of the same compound?
A: The value was “most potent”.

Q: With `COc1cc(/C=C/C(=O)O)ccc1OC(=O)c1cccnc1` [Niacin-ferulic acid hybrid] as the compound, how does the IC50 [1, 4] read?
A: The IC50 was over 50 µM.

Q: For `COc1ccc(/C=C\C(=O)O)cc1OC(=O)c1cccnc1` [Niacin-isofreulic acid hybrid], which IC50 [1, 4] is on record?
A: Its IC50 is 36.8 µM.

Q: For `COc1cc(C=O)ccc1OC(=O)c1cccnc1` [Niacin-vanillin hybrid, Nicotinic acid 4-formyl-2-methoxy-phenyl ester], which IC50 [1, 4] is on record?
A: The IC50 was 44.6 µM.

Q: With `O=C(O)c1cccnc1` [niacin, pyridine-3-carboxylic acid] as the compound, how does the “reduction of niacin IC50 in the presence of cinnamic acid” value ([1]; 5 μM cinnamic acid versus niacin alone) read?
A: Its value is “about 15%”.

Q: What about the “reduction of niacin IC50 in the presence of curcumin” value ([1]; 5 μM curcumin versus niacin alone) of the same compound?
A: The value was “about 27%”.

Q: What about the “reduction of niacin IC50 in the presence of eugenol” value ([1]; 5 μM eugenol versus niacin alone) of the same compound?
A: Its value is “about 45%”.

Q: What about the “reduction of niacin IC50 in the presence of meclofenamic acid” value ([1]; 5 μM meclofenamic acid versus niacin alone) of the same compound?
A: Its value is “about 33%”.

Q: And the “inhibitory effect of niacin on Aβ42 levels in the media” value ([1]; 5 and 10 μM niacin)?
A: The value was “good effect”.

Q: What about the “inhibition of Aβ42 levels in the media” value ([1]; 25 and 50 μM niacin) of the same compound?
A: The value was 100%.

Q: What about the IC50 ([1]; Homo sapiens, SH-SY5Y, read-out: IC50 of niacin in the presence of cinnamic acid, in the presence of 5 μM of cinnamic acid) of the same compound?
A: Its IC50 is 9.8 µM.

Q: And the IC50 ([1]; Homo sapiens, SH-SY5Y, read-out: IC50 of niacin in the presence of curcumin, in the presence of 5 μM of curcumin)?
A: The IC50 was 7.5 µM.

Q: And the IC50 ([1]; Homo sapiens, SH-SY5Y, read-out: IC50 of niacin in the presence of eugenol, in the presence of 5 μM of eugenol)?
A: Its IC50 is 5.9 µM.

Q: And the IC50 ([1]; Homo sapiens, SH-SY5Y, read-out: IC50 of niacin in the presence of meclofenamic acid, in the presence of 5 μM of meclofenamic acid)?
A: The IC50 was 7 µM.

Q: What about the IC50 ([1]; Homo sapiens, SH-SY5Y, read-out: IC50 of niacin's inhibitory effect on Aβ42 production, niacin alone, SH-SY5Y cells, overnight incubation) of the same compound?
A: The IC50 was 10.6 µM.

Q: What about the IC50 ([1]; read-out: IC50 of niacin's inhibitory effect on Aβ42 production, niacin alone, SH-SY5Y cells, overnight incubation) of the same compound?
A: The IC50 was about 10.2 µM.

Q: Which “effect on survival compared to untreated flies” value ([3]; early time points) does the source give for `Oc1ccc(C=Cc2cc(O)cc(O)c2)cc1` [resveratrol] here?
A: The value was “modest effect”.

Q: And the “effect on number of surviving flies compared to untreated flies” value ([3]; end of 9th day (FIG. 7))?
A: Its value is “no statistically different effect”.
